According to US11234971B2, “Methods of treating cancer comprising administration of a glucocorticoid receptor modulator and a cancer chemotherapy agent” (Corcept Therapeutics Incorporated, priority 2018, dated 2022):

How the values were obtained:
[1] = tested on: OVCAR-5 human ovarian cancer cells; experiment: OVCAR-5 cell growth (Cell Titer-Glo) with chemotherapy agents with or without dexamethasone and relacorilant; type: cell-based
Description: The initial cell density was chosen to be low enough to allow for several population doublings (typically 3 to 5) during the indicated incubation period. […] After 48 hours of incubation, serially diluted test agents in growth medium were added to each well. After 72 hours of culture, the plated cells and Cell Titer-Glo® (Promega G7571) reagents were brought to room temperature to equilibrate for 30 minutes. 200 μL of Cell Titer-Glo® reagent was then added to each well, the plate was shaken for two minutes, and then left to equilibrate for ten minutes. The Cell Titer-Glo® cell viability assay uses ATP levels to determine cell numbers. After this equilibration, luminescence was read on the Biotech Synergy II microplate reader. The percent control (% C) of cell growth for each test concentration was calculated relative to untreated wells. All tests were performed in quadruplicate. Individual assay plates were evaluated for appropriate signal and well-to-well variance in the control wells for quality control.

MIA PaCa-2 xenograft = MIA PaCa-2 xenograft tumor growth in immunodeficient mice; type: in vivo
Excerpt: The present example, Example 3, provides results of administration of the glucocorticoid receptor modulator relacorilant to cancerous cells. […] The MIA PaCa-2 xenograft model uses MIA PaCa-2 cell-line cells (pancreatic tumor cells derived from a pancreatic adenocarcinoma from a patient) engrafted into immunodeficient mice. The ovarian OVCAR-5 cell line is derived from a human epithelial carcinoma of the ovary, and was established from ascitic fluid obtained (prior to cytotoxic treatment) from a patient with progressive ovarian adenocarcinoma.
FIG. 10A. Relacorilant sensitizes the MIA PaCa-2 xenograft to paclitaxel. Tumor volume of PaCa-2 xenograft tumors implanted in immunodeficient mice is shown as a function of time (days) after implantation in the presence of vehicle (filled circles), paclitaxel (7.5 mg/kg; filled squares), relacorilant alone (upwardly pointing triangles), and relacorilant+7.5 mg/kg paclitaxel (downwardly pointing triangles). 7.5 mg/kg paclitaxel was administered three times (at the days indicated by the dashed vertical lines, indicating days 8, 12, and 16 following tumor implantation into the mice).
FIG. 10B. Relacorilant with Paclitaxel Reduces MIA PaCa-2 xenograft Tumor Volume. Initial tumor volume of PaCa-2 xenograft tumors implanted in immunodeficient mice was less than 400 cubic millimeters (mm^3). […] Tumor size progression is thus indicated by lines descending from the top (100%) value. The tumor-bearing mice were treated with vehicle, relacorilant (30 mg/kg every day), paclitaxel (three doses of 7.5 mg/kg paclitaxel, one dose administered on each of the days indicated in FIG. 10A), and the combination relacorilant (30 mg/kg every day) with paclitaxel (7.5 mg/kg doses of paclitaxel each administered on days 8, 12, and 16 post implantation). […] Xenograft tumor growth was slowed by combined relacorilant+paclitaxel as compared to either paclitaxel alone or relacorilant alone. Relacorilant thus enhanced sensitivity to paclitaxel in the pancreatic MIA PaCa-2 xenograft model.

androgen receptor = androgen receptor (Homo sapiens, UniProt P10275); conditions: cited from earlier work
androgen receptor, sequence (P10275 whole entry, species assumed): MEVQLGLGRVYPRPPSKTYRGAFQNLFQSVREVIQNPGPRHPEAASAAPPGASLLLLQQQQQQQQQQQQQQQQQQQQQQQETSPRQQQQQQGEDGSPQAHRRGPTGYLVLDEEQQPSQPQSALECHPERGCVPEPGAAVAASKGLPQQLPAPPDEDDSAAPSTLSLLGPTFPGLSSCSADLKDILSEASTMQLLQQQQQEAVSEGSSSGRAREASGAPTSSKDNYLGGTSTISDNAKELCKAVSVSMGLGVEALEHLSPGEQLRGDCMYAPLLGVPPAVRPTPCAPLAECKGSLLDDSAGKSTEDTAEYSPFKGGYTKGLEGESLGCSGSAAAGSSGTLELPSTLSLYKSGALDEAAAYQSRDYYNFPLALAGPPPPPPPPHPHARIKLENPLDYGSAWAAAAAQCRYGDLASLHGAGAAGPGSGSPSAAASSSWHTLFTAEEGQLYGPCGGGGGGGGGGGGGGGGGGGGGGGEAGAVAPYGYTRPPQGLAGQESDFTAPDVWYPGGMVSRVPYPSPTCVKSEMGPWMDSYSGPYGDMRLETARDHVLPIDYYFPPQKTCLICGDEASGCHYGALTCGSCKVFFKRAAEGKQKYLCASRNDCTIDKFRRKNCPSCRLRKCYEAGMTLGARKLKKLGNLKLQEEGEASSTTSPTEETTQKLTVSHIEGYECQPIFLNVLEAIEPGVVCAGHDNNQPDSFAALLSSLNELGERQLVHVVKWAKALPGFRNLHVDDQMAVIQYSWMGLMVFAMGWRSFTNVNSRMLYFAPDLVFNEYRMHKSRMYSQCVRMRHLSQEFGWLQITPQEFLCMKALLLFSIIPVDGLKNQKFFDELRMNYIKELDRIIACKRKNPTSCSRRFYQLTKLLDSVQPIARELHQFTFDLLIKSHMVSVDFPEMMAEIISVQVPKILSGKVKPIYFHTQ

progesterone receptor = progesterone receptor (Homo sapiens, UniProt P06401); conditions: cited from earlier work
progesterone receptor, sequence (P06401 whole entry, species assumed): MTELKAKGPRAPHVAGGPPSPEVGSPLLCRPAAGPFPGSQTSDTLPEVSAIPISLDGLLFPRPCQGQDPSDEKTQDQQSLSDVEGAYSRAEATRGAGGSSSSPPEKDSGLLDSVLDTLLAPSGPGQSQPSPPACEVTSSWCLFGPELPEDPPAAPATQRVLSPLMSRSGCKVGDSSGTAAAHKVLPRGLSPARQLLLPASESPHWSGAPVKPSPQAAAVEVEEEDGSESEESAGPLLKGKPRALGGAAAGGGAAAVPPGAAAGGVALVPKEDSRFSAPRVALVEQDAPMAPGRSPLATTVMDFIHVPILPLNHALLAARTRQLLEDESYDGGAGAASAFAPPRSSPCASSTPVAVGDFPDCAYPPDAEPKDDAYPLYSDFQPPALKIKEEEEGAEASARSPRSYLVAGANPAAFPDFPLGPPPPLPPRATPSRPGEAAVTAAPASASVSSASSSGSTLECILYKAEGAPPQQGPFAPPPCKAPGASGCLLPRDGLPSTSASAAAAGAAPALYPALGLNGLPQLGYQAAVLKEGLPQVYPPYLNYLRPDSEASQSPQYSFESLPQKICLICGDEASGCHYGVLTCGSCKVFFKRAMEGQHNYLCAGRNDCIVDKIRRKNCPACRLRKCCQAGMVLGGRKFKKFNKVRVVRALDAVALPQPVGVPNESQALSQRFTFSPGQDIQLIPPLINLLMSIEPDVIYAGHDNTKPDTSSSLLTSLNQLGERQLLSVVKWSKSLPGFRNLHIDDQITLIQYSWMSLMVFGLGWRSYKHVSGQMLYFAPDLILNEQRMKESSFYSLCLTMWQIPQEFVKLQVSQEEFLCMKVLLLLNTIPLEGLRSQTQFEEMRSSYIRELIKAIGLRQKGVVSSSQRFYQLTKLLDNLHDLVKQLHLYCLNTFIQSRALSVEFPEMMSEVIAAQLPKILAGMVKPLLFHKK

[2] = tested on: advanced or metastatic solid tumors; experiment: Tumor assessments per RECIST 1.1 in study NCT02762981; type: in vivo, human; conditions: of 21 patients with paired samples; relacorilant plus nab-paclitaxel
Description: In the following, reference is made to RECIST and RECIST 1.1, which refer to the Response Evaluation Criteria for Solid Tumors. These criteria, first promulgated in 2000, and updated in 2009 (as RECIST 1.1.), are generally accepted, and nearly universally used criteria for clinical trials of therapies for solid tumors. See, e.g., Schwartz et al., Eur J Cancer. July; 62: 132-137 (2016). The study described in this Example was performed and evaluated according to these criteria. Detection of the ovarian cancer marker CA-125 was also used, per Gynecologic Cancer Intergroup (GCIG) criteria, in evaluating the patient samples.
Patients Patients with solid tumors were enrolled in study NCT02762981, a phase 1/2 study of CORT125134 (aka relacorilant) in combination with nab-paclitaxel. The patients were all 18 years of age or older, with advanced or metastatic solid tumors who have disease progression; all patients gave informed consent to participate in this study.
Patients received one or more cycles of treatments as describe schematically in FIGS. 1 and 2. The treatment schedules of each 28-day cycle are shown in those figures. Patients in Segment I of the study received continuous dosing of relacorilant (“CORT125134”); that is, relacorilant was administered to the patients on a daily basis. […]

[3] = OVCAR-5, glucocorticoid 100 nM dexamethasone, relacorilant in the presence of the glucocorticoid

Compound: Cn1cc(S(=O)(=O)N2CCC3=Cc4c(cnn4-c4ccc(F)cc4)C[C@]3(C(=O)c3cc(C(F)(F)F)ccn3)C2)cn1 [relacorilant, (R)-(1-(4-fluorophenyl)-6-((1-methyl-1H-pyrazol-4-yl)sulfonyl)-4,4a,5,6,7,8-hexahydro-1H-pyrazolo[3,4-g]isoquinolin-4a-yl)(4-(trifluoromethyl)pyridin-2-yl)methanone]
- cell numbers (luminosity) in the presence of bortezumib and palbociclib ([1]; OVCAR-5, bortezumib 500 μM, palbociclib 100 μM, 100 nM dexamethasone, 300 nM relacorilant): opposed
- maximal toxicity at high chemotherapy concentrations ([1]; OVCAR-5, dexamethasone, relacorilant + dexamethasone): reversed this
- half-maximal potency of / sensitivity to oxaliplatin [1, 3]: restored sensitivity to oxaliplatin
- maximum effect of / sensitivity to gemcitabine [1, 3]: restored sensitivity to gemcitabine
- maximum effect of / sensitivity to paclitaxel [1, 3]: restored sensitivity to paclitaxel
- effects of dexamethasone on response to chemotherapeutic agents ([1]; OVCAR-5, several chemotherapeutic agents): reversed the effects of dexamethasone in all cases
- potency of carboplatin ([1]; OVCAR-5 grown with 100 nM dexamethasone, carboplatin titrated against increasing amounts of relacorilant): dose-dependently increased
- time to progression (fraction of tumors whose volume remained below 400 mm^3) (MIA PaCa-2 xenograft; relacorilant (30 mg/kg every day) added to paclitaxel 7.5 mg/kg days 8, 12, 16, compared to paclitaxel alone, p<0.0001): delayed the time to progression
- tumor growth (tumor volume over time) (MIA PaCa-2 xenograft; relacorilant added to 7.5 mg/kg paclitaxel (days 8, 12, 16), compared to paclitaxel alone, p<0.0001): delayed tumor growth
- time to progression (fraction of tumors whose volume remained below 400 mm^3) (MIA PaCa-2 xenograft; single agent, relacorilant 30 mg/kg every day or paclitaxel 7.5 mg/kg on days 8, 12, 16): nearly superimposed on the vehicle line
- Ki (androgen receptor): > 10 µM
- Ki (progesterone receptor): > 10 µM
- patients who experienced benefit from therapy (SD, PR or CR) [2]: 11 patients
- patients who experienced progressive disease [2]: 10 patients
